Test results from patent US20240018125A1, “CYCLIC ISOTHIOUREA DERIVATIVES AS CXCR4 MODULATORS” (ERMIUM THERAPEUTICS, priority 2020, published 2024).
Structures can show the parent of a compound that is named as a salt.

Experiments:
[1] = tested on: 129S8 mice infected with influenza A virus H3 N2 (X31); experiment: In vivo immunomodulating effect (type 1 IFNs in BALF) in acute influenza inflammation model; parameters: species or system mouse; conditions: mouse, in vivo
[2] = tested on: peripheral blood mononuclear cells (PBMCs) from healthy donors; experiment: IFN production by R848-activated PBMCs, quantified with twINNE luciferase reporter cell line; format: cell-based, human; conditions: Homo sapiens, PBMC; read-out: IC50 of anti-inflammatory activity (IFN production by activated PBMCs)
Method in brief: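 Healthy-donor PBMCs (4.10^6/mL, RPMI/10% FBS) were pre-treated with compound, then stimulated with R848 at 5 μg/mL for 24 h. Supernatants were put on twINNE cells, which carry luciferase under five ISREs, for 24 h, and Bright-Glo luminescence was read. IC50 values came from variable-slope dose-response fits.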

[3] = molecular target: T1, human CXCR4 (hCXCR4) receptor (Homo sapiens, UniProt P61073); experiment: BRET assay of antagonist activity on the CXCR4-CXCL12 signaling pathway (Gαi2 recruitment) in HEK-293 T cells; format: cell-based; conditions: HEK-293 T cells with hCXCR4, Gαi2 and BRET biosensors; 10 min with compound, then EC80 CXCL12
T1 construct: expressed in transfected cells; host or cells: HEK-293 T cells, transient co-transfection with polyethylenimine
T1 sequence (P61073 whole entry): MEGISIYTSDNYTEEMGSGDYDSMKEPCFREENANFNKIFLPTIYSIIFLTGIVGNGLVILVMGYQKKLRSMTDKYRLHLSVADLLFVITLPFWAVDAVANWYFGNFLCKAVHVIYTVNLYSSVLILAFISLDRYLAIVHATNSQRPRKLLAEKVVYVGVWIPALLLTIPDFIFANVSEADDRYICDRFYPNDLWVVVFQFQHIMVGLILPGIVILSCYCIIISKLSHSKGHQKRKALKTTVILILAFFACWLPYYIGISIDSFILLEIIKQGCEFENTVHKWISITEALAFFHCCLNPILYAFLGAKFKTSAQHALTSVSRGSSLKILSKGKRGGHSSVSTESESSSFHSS
Procedure: Examples of the present invention were tested for their antagonist activity on human CXCR4 (hCXCR4) receptor transiently over-expressed in HEK-293 T cells. Compounds exert antagonist activity if they decrease the action of CXCL12 on the receptor.
The specific effector (luciferase tagged: BRET donor) recruited at the membrane will be in close proximity to a plasma membrane anchor (GFP tagged: BRET acceptor) to induce a BRET signal (Hamdan et a1, 2006, Chapter 5, Current Protocols in Neuroscience).
HEK-293 T cells are maintained in Dulbecco's Modified Eagle's Medium supplemented with 10% Foetal Calf Serum, 1% Penicillin/Streptomycin at 37° C./5% CO2. Cells are co-transfected using polyethylenimine (25 kDa linear) with several DNA plasmids encoding: hCXCR4; Gai2; an intracellular effector fused to luciferase (BRET donor); a plasma membrane effector fused to GFP (BRET acceptor). After transfection, cells are cultured for 48 h at 37° C./5% CO2. On the day of the assay, cells are detached using trypsin 0.05%, resuspended in assay buffer (1.8 mM CaCl2, 1 mM MgCl2, 2.7 mM KCl, 137 mM NaCl, 0.4 mM NaH2PO4, 5.5 mM D-Glucose, 11.9 mM NaHCO3, 25 mM Hepes) and seeded in 384 well plate at a density of 20,000 cells per well. Then, plates are equilibrated 3.5 h at 37° C. before adding compounds. Compounds and luciferase substrate are added to the cells using an automated device (Freedom Evo®, Tecan) and BRET readings are collected on EnVision (PerkinElmer) with specific filters (410 nm BW 80 nm, 515 nm BW 30 nm).
Cells are first incubated for 10 minutes with the compound alone. Then, cells are stimulated by an EC80 CXCL12 concentration for additional 10 minutes and luminescence is recorded. EC80 CXCL12 concentration is the concentration giving 80% of the maximal CXCL12 response. Antagonist activity is evaluated in comparison to basal signals evoked by EC80 CXCL12 alone.
For IC50 determination, a dose-response test is performed using 20 concentrations (ranging over 6 logs) of each compound. Dose-response curves are fitted using the sigmoidal dose-response (variable slope) analysis in GraphPad Prism software (GraphPad Software) and IC50 of antagonist activity is calculated. Dose-response experiments are performed in duplicate, in two independent experiments.
HEK-293 T cells were transfected to allow measuring the recruitment of Gai2 proteins involved in intracellular signaling by human CXCR4 receptor (hCXCR4) via the BRET technology. Cells were then incubated with various concentrations of examples of the invention before stimulation with an EC80 concentration of CXCL12.

[4] = molecular target: T2, Recombinant CXCR4 receptor (Homo sapiens, UniProt P61073); experiment: G.Validation fluorescence assay of CXCR4 receptor conformational changes in lipidic micelles SB2L4 and SB3L1; format: biochemical; conditions: ligand 150 μM over basal state, 5 μM labelled CXCR4, 40 min
T2 construct: host or cells: HEK-293 T cells
T2 sequence (P61073 whole entry): as above
From the text: G.Validation® assay is […] biotech proprietary fluorescence based assay that assesses conformational changes of a receptor upon activation/inactivation. Recombinant CXCR4 receptor is produced and purified from HEK-293 T cells using […] proprietary mixes. Receptor is then reconstituted in detergent buffers containing lipids mimicking the lipidic composition of dendritic cells (DC) and macrophages (SB2L4 and SB3L1). Thereafter, the receptor is labelled with a non-modifying probe allowing the detection of the activation state and conformational change of the receptor upon addition of a ligand. Indeed, the probe emission spectra maximum wavelength (Amax) shifts according to activation/inactivation of the receptor. Thus, kinetic of activation/inactivation of the receptor can be followed by monitoring Amax shift after addition of a ligand over time. Emission spectra were registered for 40 minutes after addition of each ligand. […] Activation/inactivation kinetics were also followed using an exemplary compound of formula (I), i.e.

[5] = tested on: monocytes from healthy donors; experiment: Intracellular TNFα, IL-6 and IL-1β production by R848-activated monocytes after CXCR4 siRNA knockdown or AMD3100 block (flow cytometry); format: cell-based, human
From the text: The blood from healthy donors was obtained from “Etablissement Français du Sang” (convention #19/EFS/029), Paris, France.
Peripheral blood mononuclear cells (PBMCs) were isolated by density centrifugation from peripheral blood leukocyte separation medium, lymphoprep (Stemcell Technologies, Vancouver, Canada).
Monocytes used for in vitro experiments as described in part C/D were purified by positive selection with human CD14 microbeads (Miltenyi Biotec, Bergisch Gladbach, Germany) from PBMCs.
Monocytes were cultured in RPMI 1640 (Sigma-Aldrich, St Louis, USA) containing 10% heat-inactivated Fetal Bovine Serum (FBS, Sigma-Aldrich, St Louis, USA) at 37° C./5% CO2.
PBMCs and monocytes used herein were prepared as described in part A ‘Immune cells preparation’, above. Monocytes as prepared in part C ‘In vitro knockdown using siRNA or CXCR4 antagonist treatment’ and D ‘Quantification of TNFα, IL-6 and IL1β productions’ were incubated with one exemplary compound of formula (I), i.e. […] Monocytes were analysed by flow cytometry. For intracellular TNFα, IL-6 and IL-1p labelling as described in Part D ‘Quantification of TNFα, IL-6 and IL-1β productions’, Brefeldin A (BFA) was added to the cells 30 minutes after R848 stimulation.
Isolated monocytes were seeded at 10^5 cells/100 μL in 96-well plates and incubated at 37° C.
Monocytes were then treated with small interfering RNA (siRNA) which target the chemokine receptor CXCR4 mRNA (siCXCR4) (Smart Pool, Dharmacon, Lafayette, USA), or with control siRNAs (siCTL) and coupled to a transfection agent DOTAP (Roche Applied Science, Penzberg, Germany). The mix was gently mixed and incubated at room temperature for 15 minutes. After incubation, the mix was added to cells in culture at a final concentration of 160 nM. Finally, cells were incubated at 37° C. for 24 hours.
Alternatively, monocytes were treated after seeding with the CXCR4 antagonist AMD3100 (Sigma-Aldrich, USA) at 20 μM for 1 hour.
Monocytes as treated in part C, were washed in phosphate-buffered saline (PBS) and incubated with a viability marker (Zombie Aqua, Biolegend, San Diego, USA) for 30 minutes at room temperature. After washing, cells were resuspended in PBS containing 2% FBS and 2 mM ethylenediaminetetraacetic acid (EDTA) and labelled with anti-CD14 antibody (clone REA599, Miltenyi Biotech, Bergisch Gladbach, Germany), used at 1:100. For intracellular labelling of TNFα, IL-6 and IL-1β, the “Inside Stain” kit (Miltenyi Biotec, Bergisch Gladbach, Germany) was used according to the manufacturer's protocol. Cells were fixed for 20 minutes at room temperature with 250 μL of Inside Fix solution and then labelled in 100 μL of Inside Perm solution containing anti-TNFα antibody (clone cA2), anti-IL-6 antibody (clone REA1037) or anti-IL-1p antibody (clone REA1172) at 1/500 for 30 minutes at room temperature (all from Miltenyi Biotec, Bergisch Gladbach, Germany). Data acquisition was performed on the Canto II flow cytometer using Diva software (BD Biosciences, San Jose, USA). FlowJo software was used to analyse the data.

[6] = tested on: Female Balb/c mice, pristane-induced lupus; experiment: In vivo pristane-induced lupus mouse model, anti-dsDNA antibody titers in serum by ELISA; conditions: 15 mg/kg p.o. once daily, as of week 4
Procedure: Female Balb/c mice (6 to 8 weeks, ENVIGO, Indianapolis, USA) received a single i.p. injection with 0.5 mL of pristane (Sigma-Aldrich, St Louis, USA) to induce a lupus-like disease. That same day, once daily treatment was started (10 mL/kg), either with vehicle control (PBS) i.p., with prednisolone (Sigma-Aldrich, St Louis, USA) in PBS p.o. at a dose of 15 mg/kg (positive control), or with an exemplary compound of formula (I), i.e. Example 60, at a dose of either 3 mg/kg, 10 mg/kg or 30 mg/kg in PBS i.p. After 4, 6 and 8 weeks of dosing, sample bleeds for each mouse were collected via the orbital sinus, and immediately cold processed to sera and stored (50 μl) at −80° C. until analysis. In serum, anti-dsDNA antibody titers are determined using ELISA. Optical density was measured at 450 nm (OD450) using a microplate reader. Data are reported as anti-dsDNA Ab titers (OD), mean±S.E.M. as well as the statistical significance versus pristane-induced vehicle treated group using t-tests.

[7] = AMD3100 20 μM, Example 77 10, 50 and 500 nM, R848

CC(C)Cc1ccc(C(C)C(=O)O)cc1 (stereo not drawn) [ibuprofen, reference compound]
concentration of IFNα in BALF vs vehicle-treated infected mice [1]: significantly lower | concentration of IFNβ in BALF vs vehicle-treated infected mice [1]: significantly lower | concentration of IFNλ2/3 in BALF vs vehicle-treated infected mice [1]: significantly lower

C1=C(CSC2=NCc3ccccc3N2)N2CC(Cc3ccccc3)N=C2S1 (stereo not drawn) [Example 65, 6-benzyl-3-(((3,4-dihydroquinazolin-2-yl)thio)methyl)-5,6-dihydroimidazo[2,1-b]thiazole dihydrochloride]
IC50 [2]: ≤ 10 µM | IC50 [3]: ≥ 15 µM

Clc1ccc2c(c1)CN1C(CSC3=NCc4ccccc4N3)=CSC1=N2 [Example 19, 7-chloro-3-(((1,4-dihydroquinazolin-2-yl)thio)methyl)-5H-thiazolo[2,3-b]quinazoline dihydrochloride]
IC50 [2]: ≤ 10 µM | IC50 [3]: ≥ 15 µM

Cc1ccc(OCC(O)C(C)NC(C)C)c2c1CCC2 (stereo not drawn) [ICI 118 551]
CXCR4 structural activation/inactivation, Amax shift in fluorescence [4]: did not show any significant effect

c1ccc2c(c1)CN=C(SCCN1CCCC1)N2 [Example 77, 2-((2-(pyrrolidin-1-yl)ethyl)thio)-1,4-dihydroquinazoline dihydrochloride]
IL-1β production by activated monocytes in the presence of Example 77 with CXCR4 blocked by AMD3100 [5, 7]: restored | TNFα production by activated monocytes in the presence of Example 77 with CXCR4 blocked by AMD3100 [5, 7]: restored | IL-1β production by activated monocytes in the presence of Example 77 after CXCR4 siRNA ([5]; siCXCR4 vs siCTL, Example 77 50 nM, R848 1 μg/mL, % IL-1β positive cells): restored | IL-6 production by activated monocytes in the presence of Example 77 after CXCR4 siRNA ([5]; siCXCR4 vs siCTL, Example 77 50 nM, R848 1 μg/mL, % IL-6 positive cells): restored | TNFα production by activated monocytes in the presence of Example 77 after CXCR4 siRNA ([5]; siCXCR4 vs siCTL, Example 77 50 nM, R848 1 μg/mL, % TNFα positive cells): restored | IC50 [2]: ≤ 10 µM | IC50 [3]: ≥ 15 µM

C[C@]12C=CC(=O)C=C1CC[C@@H]1[C@@H]2[C@@H](O)C[C@@]2(C)[C@H]1CC[C@]2(O)C(=O)CO [prednisolone, reference compound]
anti-dsDNA Ab titers in serum vs vehicle-treated pristane-induced mice [6]: significantly reduced

NC[C@H](O)c1ccc(O)c(O)c1 [Norepinephrine]
CXCR4 structural activation/inactivation, Amax shift in fluorescence [4]: did not show any significant effect

c1ccc(CC2CN=C(SCCCc3ccncc3)N2)cc1 (stereo not drawn) [Example 55, 4-(3-((5-benzyl-4,5-dihydro-1H-imidazol-2-yl)thio)propyl)pyridine dihydrochloride]
IC50 [2]: 10 to 32 µM | IC50 [3]: ≥ 15 µM

Cl.c1ccc(CC2CN=C(SCc3cn4cccnc4n3)N2)cc1 (stereo not drawn) [Example 51, 2-(((5-benzyl-4,5-dihydro-1H-imidazol-2-yl)thio)methyl)imidazo[1,2-a]pyrimidine hydrochloride]
IC50 [2]: > 32 µM | melting point: 100 to 115 °C
